# Legend:
# [1] = molecular target: T1, Human δ-opioid (DOP) (Homo sapiens, UniProt P41143); experiment: Radioligand binding, human δ-opioid (DOP) membranes, FlashPlate, [3H]-Bremazocine; settings: compound at 10 μM
# T1 construct: purchased Perkin Elmer Biosignal
# Procedure: (§1) Cloned receptor membrane preparations from Perkin Elmer Biosignal™ were used in radioligand binding assays.
# (§2) A1 Human δ-opioid (DOP), A2 Human κ-Opioid (KOP), A3 Human Melanocortin (MC3), A4 Human Melanocortin (MC4), A5 Human melanocortin (MC5), A6 Human melanin-concentrating hormone (MCH1), A7 Human μ-opioid (MOP), A8 Human neurokinin (NK1), A9 Human neuropeptide Y (NPY-Y1), A10 Human opioid (ORL1) A11 Mouse urotensin (mUR2)
# (§3) Screening experiments were performed in either a 50 μl filtration or 25 μl FlashPlate assay format using the following protocol:
# (§4) 19.5 μl buffer, 0.5 μl of compound diluted in DMSO, 5 μl of radioligand diluted in binding buffer.
# (§5) The day prior to performing the experiment 50 μl DMSO was added to each well of the compound plates to yield compounds at a final concentration of 10 mM. Daughter plates were then created by diluting the compounds further in DMSO to a concentration of 0.5 mM. The mother plates were frozen immediately.
# (§6) Immobilize membranes into FlashPlate microplates using PerkinElmer BioSignal's proprietary coating procedure. Dilute radioligand to 5× the final concentration in binding buffer. Add 19.5 μl buffer to each well of the FlashPlate. Add 0.5 μl of DMSO (total value, 5 wells), reference ligand (non-specific value, 3 wells) or compound to the corresponding wells in the FlashPlate microplate. Initiate the reaction by adding 5 μl of radioligand to each well. Apply TopSeal-A onto FlashPlate microplates. Incubate at room temperature for 1 hour in the dark. Count for 30 seconds per well on TopCount Microplate Scintillation and Luminescence Counter (PerkinElmer) using a count delay of 60 seconds.
# (§7) Percentage inhibition was calculated using the following formula: [formula]
# [2] = molecular target: T2, Human opioid (ORL1) (Homo sapiens, UniProt P41146); experiment: Radioligand binding, human opioid ORL1 membranes, FlashPlate, [125I]-Nociceptin; settings: compound at 10 μM
# T2 construct: purchased Perkin Elmer Biosignal
# T2 sequence (P41146 whole entry): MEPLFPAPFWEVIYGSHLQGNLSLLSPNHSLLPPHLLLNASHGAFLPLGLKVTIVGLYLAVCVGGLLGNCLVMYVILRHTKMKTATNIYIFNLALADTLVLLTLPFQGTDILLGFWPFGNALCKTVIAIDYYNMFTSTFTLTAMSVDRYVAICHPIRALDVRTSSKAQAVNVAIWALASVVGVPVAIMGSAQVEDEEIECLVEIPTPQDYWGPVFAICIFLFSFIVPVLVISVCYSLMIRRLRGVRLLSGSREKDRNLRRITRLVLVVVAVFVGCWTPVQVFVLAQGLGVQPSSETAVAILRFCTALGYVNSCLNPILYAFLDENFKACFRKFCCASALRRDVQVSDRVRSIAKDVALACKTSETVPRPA
# Procedure: as §1, §2, §3, §4, §5, §6, §7
# [3] = molecular target: T3, Human Melanocortin (MC3) (Homo sapiens, UniProt P41968); experiment: Radioligand binding, human melanocortin MC3 membranes, FlashPlate, [125I]-NDP-αMSH; settings: compound at 10 μM
# T3 construct: purchased Perkin Elmer Biosignal
# T3 sequence (P41968 whole entry): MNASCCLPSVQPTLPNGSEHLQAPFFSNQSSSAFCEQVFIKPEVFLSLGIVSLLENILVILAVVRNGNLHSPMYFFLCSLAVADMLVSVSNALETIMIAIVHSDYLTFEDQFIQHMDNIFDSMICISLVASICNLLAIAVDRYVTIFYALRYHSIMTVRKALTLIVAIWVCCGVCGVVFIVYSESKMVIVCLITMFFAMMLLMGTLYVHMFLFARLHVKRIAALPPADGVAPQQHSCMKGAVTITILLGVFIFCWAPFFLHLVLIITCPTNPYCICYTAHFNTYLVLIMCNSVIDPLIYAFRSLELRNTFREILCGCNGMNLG
# Procedure: as §1, §2, §3, §4, §5, §6, §7
# [4] = molecular target: T4, Human κ-Opioid (KOP) (Homo sapiens, UniProt P41145); experiment: Radioligand binding, human κ-opioid (KOP) membranes, filtration, [3H]-Diprenorphine; settings: compound at 10 μM
# T4 construct: purchased Perkin Elmer Biosignal
# T4 sequence (P41145 whole entry): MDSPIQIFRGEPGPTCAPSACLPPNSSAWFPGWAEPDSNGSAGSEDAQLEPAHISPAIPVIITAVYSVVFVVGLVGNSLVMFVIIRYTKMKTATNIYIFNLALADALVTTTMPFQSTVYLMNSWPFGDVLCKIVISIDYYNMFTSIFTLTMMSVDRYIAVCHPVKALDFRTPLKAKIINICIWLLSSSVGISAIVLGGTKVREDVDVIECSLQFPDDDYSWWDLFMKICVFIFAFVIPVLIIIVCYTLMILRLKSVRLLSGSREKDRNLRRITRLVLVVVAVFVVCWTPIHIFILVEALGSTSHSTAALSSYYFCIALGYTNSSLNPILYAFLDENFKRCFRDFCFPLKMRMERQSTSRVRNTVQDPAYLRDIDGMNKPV
# Procedure: as §1, §2, §3
# (§8) 44 μl membranes diluted in buffer, 1 μl of compound diluted in DMSO, 5 μl of radioligand diluted in binding buffer.
# as §5
# (§9) Thaw membranes on ice then dilute membranes in binding buffer at a concentration of 1 Unit per well. Dilute radio-ligand to 10 times the final concentration in binding buffer. Add 44 μl of diluted membranes to each well of the deep-well plate. Add 1 μl of DMSO (total value, 5 wells), reference ligand (non-specific value, 3 wells) or compound to the corresponding wells in the deep-well plate. Initiate the reaction by adding 5 μl of radioligand to each well and vortex gently. Incubate at room temperature for 1 hour. During incubation, pre-incubate the Multiscreen Harvest plates in 0.3% PEI. Filter over pre-soaked Multiscreen Harvest plates using a Tomtec Harvester. Wash 9 times with 500 μl of cold 50 mM Tris-HCl pH 7.4 at 4° C. and air-dry for 30 minutes at room temperature under a fume hood. Apply a bottom seal to the Multiscreen Harvest plates. Add 25 μl of MicroScint-0 to each well. Apply TopSeal-A to the plate. Count for 30 seconds per well on TopCount Microplate Scintillation and Luminescence Counter (PerkinElmer) using a count delay of 60 seconds.
# as §7
# [5] = molecular target: T5, Human neurokinin (NK1) (Homo sapiens, UniProt P25103); experiment: Radioligand binding, human neurokinin NK1 membranes, filtration, [125I]-Substance P; settings: compound at 10 μM
# T5 construct: purchased Perkin Elmer Biosignal
# T5 sequence (P25103 whole entry): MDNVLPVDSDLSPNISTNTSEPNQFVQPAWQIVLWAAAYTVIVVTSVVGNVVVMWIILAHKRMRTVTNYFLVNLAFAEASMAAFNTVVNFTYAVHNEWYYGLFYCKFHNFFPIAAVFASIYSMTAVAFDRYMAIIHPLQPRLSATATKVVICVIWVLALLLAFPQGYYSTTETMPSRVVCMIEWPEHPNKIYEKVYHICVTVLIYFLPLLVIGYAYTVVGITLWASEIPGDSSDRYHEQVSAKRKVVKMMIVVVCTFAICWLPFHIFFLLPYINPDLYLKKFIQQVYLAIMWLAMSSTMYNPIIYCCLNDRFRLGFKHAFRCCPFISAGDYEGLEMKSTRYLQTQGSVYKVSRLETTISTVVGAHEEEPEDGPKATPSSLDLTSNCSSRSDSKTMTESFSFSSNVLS
# Procedure: as §1, §2, §3, §8, §5, §9, §7
# [6] = molecular target: T6, Human melanocortin (MC5) (Homo sapiens, UniProt P33032); experiment: Radioligand binding, human melanocortin MC5 membranes, FlashPlate, [125I]-NDP-αMSH; settings: compound at 10 μM
# T6 construct: purchased Perkin Elmer Biosignal
# T6 sequence (P33032 whole entry): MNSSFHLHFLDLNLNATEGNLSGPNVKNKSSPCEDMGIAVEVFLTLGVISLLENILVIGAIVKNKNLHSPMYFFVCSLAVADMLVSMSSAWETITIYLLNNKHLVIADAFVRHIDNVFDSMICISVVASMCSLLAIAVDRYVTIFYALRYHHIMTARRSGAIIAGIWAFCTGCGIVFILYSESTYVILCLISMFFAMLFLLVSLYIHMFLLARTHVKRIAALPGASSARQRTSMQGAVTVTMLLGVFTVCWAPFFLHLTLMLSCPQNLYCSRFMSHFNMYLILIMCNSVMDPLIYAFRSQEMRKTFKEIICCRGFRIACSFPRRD
# Procedure: as §1, §2, §3, §4, §5, §6, §7
# [7] = molecular target: T7, Mouse urotensin (mUR2) (Mus musculus, UniProt Q8VIH9); experiment: Radioligand binding, mouse urotensin mUR2 membranes, FlashPlate, [125I]-Urotensin II; settings: compound at 10 μM
# T7 construct: purchased Perkin Elmer Biosignal
# T7 sequence (Q8VIH9 1-385): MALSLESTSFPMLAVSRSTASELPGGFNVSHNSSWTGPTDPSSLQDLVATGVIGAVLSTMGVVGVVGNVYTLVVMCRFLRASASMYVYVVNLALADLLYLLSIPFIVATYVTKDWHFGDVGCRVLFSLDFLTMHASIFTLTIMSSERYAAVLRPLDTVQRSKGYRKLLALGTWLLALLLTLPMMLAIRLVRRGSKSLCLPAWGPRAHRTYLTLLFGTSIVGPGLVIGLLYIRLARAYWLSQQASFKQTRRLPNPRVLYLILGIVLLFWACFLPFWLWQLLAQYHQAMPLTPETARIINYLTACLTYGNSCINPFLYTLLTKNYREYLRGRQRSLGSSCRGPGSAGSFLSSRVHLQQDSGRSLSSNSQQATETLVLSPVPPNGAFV
# Procedure: as §1, §2, §3, §4, §5, §6, §7
# [8] = molecular target: T8, Human melanin-concentrating hormone (MCH1) (Homo sapiens, UniProt Q99705); experiment: Radioligand binding, human melanin-concentrating hormone MCH1 membranes, FlashPlate, [125I]-S36057; settings: compound at 10 μM; for A6 radioligand binding, percentage inhibition: [125I]-S36057
# T8 construct: purchased Perkin Elmer Biosignal
# T8 sequence (Q99705 whole entry): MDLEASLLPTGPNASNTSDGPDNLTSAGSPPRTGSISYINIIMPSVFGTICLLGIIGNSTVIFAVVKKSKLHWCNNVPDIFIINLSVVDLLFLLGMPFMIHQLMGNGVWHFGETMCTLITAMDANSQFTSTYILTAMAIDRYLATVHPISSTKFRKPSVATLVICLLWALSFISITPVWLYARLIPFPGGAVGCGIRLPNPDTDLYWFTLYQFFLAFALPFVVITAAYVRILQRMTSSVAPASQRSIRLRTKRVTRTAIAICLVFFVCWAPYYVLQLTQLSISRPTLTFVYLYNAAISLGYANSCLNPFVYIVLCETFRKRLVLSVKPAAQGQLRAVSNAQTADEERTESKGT
# Procedure: as §1, §2, §3, §4, §5, §6, §7
# [9] = molecular target: T9, Human μ-opioid (MOP) (Homo sapiens, UniProt P35372); experiment: Radioligand binding, human μ-opioid (MOP) membranes, FlashPlate, [3H]-Naloxone; settings: compound at 10 μM
# T9 construct: purchased Perkin Elmer Biosignal
# T9 sequence (P35372 whole entry): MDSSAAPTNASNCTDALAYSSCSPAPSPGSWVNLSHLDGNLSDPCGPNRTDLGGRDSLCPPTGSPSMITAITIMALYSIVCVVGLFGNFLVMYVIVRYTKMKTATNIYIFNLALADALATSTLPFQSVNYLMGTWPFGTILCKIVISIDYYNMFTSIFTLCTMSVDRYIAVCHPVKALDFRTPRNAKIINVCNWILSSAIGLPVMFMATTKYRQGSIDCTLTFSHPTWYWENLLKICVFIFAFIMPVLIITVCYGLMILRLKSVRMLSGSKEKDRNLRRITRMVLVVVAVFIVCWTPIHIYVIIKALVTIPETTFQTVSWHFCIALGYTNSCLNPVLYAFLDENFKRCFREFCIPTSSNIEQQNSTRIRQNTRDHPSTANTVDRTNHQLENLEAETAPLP
# Procedure: as §1, §2, §3, §4, §5, §6, §7
# [10] = molecular target: T10, Human neuropeptide Y (NPY-Y1) (Homo sapiens, UniProt P25929); experiment: Radioligand binding, human neuropeptide Y NPY-Y1 membranes, FlashPlate, [125I]-PYY; settings: compound at 10 μM
# T10 construct: purchased Perkin Elmer Biosignal
# T10 sequence (P25929 1-384): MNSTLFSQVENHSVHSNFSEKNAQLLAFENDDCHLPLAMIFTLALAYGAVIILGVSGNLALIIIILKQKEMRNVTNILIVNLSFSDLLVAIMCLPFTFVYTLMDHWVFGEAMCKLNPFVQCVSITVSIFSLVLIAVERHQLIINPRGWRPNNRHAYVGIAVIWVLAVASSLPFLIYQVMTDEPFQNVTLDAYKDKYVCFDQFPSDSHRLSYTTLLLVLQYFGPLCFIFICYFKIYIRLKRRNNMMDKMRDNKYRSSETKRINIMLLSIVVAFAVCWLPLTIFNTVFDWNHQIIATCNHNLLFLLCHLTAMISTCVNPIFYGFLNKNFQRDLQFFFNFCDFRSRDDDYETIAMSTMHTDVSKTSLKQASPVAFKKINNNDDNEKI
# Procedure: as §1, §2, §3, §4, §5, §6, §7
# [11] = molecular target: T11, Human Melanocortin (MC4) (Homo sapiens, UniProt P32245); experiment: Radioligand binding, human melanocortin MC4 membranes, FlashPlate, [125I]-NDP-αMSH; settings: compound at 10 μM
# T11 construct: purchased Perkin Elmer Biosignal
# T11 sequence (P32245 whole entry): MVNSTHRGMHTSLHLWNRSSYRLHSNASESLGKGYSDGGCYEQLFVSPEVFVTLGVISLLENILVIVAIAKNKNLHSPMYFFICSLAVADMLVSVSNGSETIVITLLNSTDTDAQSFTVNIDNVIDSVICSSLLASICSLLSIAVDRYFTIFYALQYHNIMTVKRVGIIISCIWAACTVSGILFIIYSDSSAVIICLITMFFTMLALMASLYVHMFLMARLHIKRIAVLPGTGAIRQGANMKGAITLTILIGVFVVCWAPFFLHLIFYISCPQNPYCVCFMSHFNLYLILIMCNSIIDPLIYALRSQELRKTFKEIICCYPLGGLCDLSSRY
# Procedure: as §1, §2, §3, §4, §5, §6, §7
# T1 sequence (P41143 whole entry): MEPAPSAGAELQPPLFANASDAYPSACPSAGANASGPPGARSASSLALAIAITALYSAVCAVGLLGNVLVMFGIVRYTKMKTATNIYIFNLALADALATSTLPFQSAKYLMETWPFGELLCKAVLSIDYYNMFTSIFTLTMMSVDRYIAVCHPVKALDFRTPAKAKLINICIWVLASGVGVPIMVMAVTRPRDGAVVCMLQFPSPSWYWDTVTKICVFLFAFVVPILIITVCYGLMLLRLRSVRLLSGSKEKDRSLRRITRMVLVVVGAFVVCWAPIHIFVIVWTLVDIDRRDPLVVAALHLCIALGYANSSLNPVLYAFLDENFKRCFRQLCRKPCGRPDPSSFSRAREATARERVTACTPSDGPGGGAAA
smiles,measurement,setting,value
CO[C@H]1[C@H](O)[C@@H](COCc2ccc(-c3ccccc3)cc2)OC(OCc2ccc3ccccc3c2)[C@@H]1NC(=O)CNC(=N)N (stereo partly shown) [compound 66],A1 radioligand binding inhibition,[1]; human δ-opioid (DOP) membranes,− (“−” indicates less than 50% inhibition at 10 μM)
same,A10 radioligand binding inhibition,[2]; human ORL1 membranes,− (“−” indicates less than 50% inhibition at 10 μM)
same,A3 radioligand binding inhibition,[3]; human melanocortin MC3 membranes,+ (“+” indicates greater than 50% inhibition at 10 μM)
same,A2 radioligand binding inhibition,[4]; human κ-opioid (KOP) membranes,− (“−” indicates less than 50% inhibition at 10 μM)
same,A8 radioligand binding inhibition,[5]; human neurokinin NK1 membranes,+ (“+” indicates greater than 50% inhibition at 10 μM)
same,A5 radioligand binding inhibition,[6]; human melanocortin MC5 membranes,+ (“+” indicates greater than 50% inhibition at 10 μM)
same,A11 radioligand binding inhibition,[7]; mouse urotensin mUR2 membranes,− (“−” indicates less than 50% inhibition at 10 μM)
same,A6 radioligand binding inhibition,[8]; human MCH1 membranes,+ (“+” indicates greater than 50% inhibition at 10 μM)
same,A7 radioligand binding inhibition,[9]; human μ-opioid (MOP) membranes,+ (“+” indicates greater than 50% inhibition at 10 μM)
same,A9 radioligand binding inhibition,[10]; human NPY-Y1 membranes,− (“−” indicates less than 50% inhibition at 10 μM)
same,A4 radioligand binding inhibition,[11]; human melanocortin MC4 membranes,+ (“+” indicates greater than 50% inhibition at 10 μM)
CSC1OC(COCc2ccc(Cl)cc2)C(O)C(OCc2ccccc2)C1NC(=O)CNC(=N)N (stereo not shown) [compound 253],A1: inhibition of radioligand binding,"[1]; [3H]-Bremazocine, FlashPlate",− (“−” indicates less than 50% inhibition at 10 μM)
same,A10: inhibition of radioligand binding,"[2]; [125I]-Nociceptin, FlashPlate",− (“−” indicates less than 50% inhibition at 10 μM)
same,A3: inhibition of radioligand binding,"[3]; [125I]-NDP-αMSH, FlashPlate",− (“−” indicates less than 50% inhibition at 10 μM)
same,A2: inhibition of radioligand binding,"[4]; [3H]-Diprenorphine, filtration",− (“−” indicates less than 50% inhibition at 10 μM)
same,A8: inhibition of radioligand binding,"[5]; [125I]-Substance P, filtration",+ (“+” indicates greater than 50% inhibition at 10 μM)
same,A5: inhibition of radioligand binding,"[6]; [125I]-NDP-αMSH, FlashPlate",+ (“+” indicates greater than 50% inhibition at 10 μM)
same,A11: inhibition of radioligand binding,"[7]; [125I]-Urotensin II, FlashPlate",− (“−” indicates less than 50% inhibition at 10 μM)
same,A6: inhibition of radioligand binding,"[8]; [125I]-S36057, FlashPlate",− (“−” indicates less than 50% inhibition at 10 μM)
same,A7: inhibition of radioligand binding,"[9]; [3H]-Naloxone, FlashPlate",− (“−” indicates less than 50% inhibition at 10 μM)
same,A9: inhibition of radioligand binding,"[10]; [125I]-PYY, FlashPlate",− (“−” indicates less than 50% inhibition at 10 μM)
same,A4: inhibition of radioligand binding,"[11]; [125I]-NDP-αMSH, FlashPlate",− (“−” indicates less than 50% inhibition at 10 μM)
CO[C@H]1[C@H](O)[C@@H](COCc2cccc(O)c2)OC(OCc2ccc(Cl)cc2)[C@@H]1NC(=O)CCCNC(=N)N (stereo partly shown) [compound 157],"A1 radioligand binding, percentage inhibition",[1]; [3H]-Bremazocine,− (“−” indicates less than 50% inhibition at 10 μM)
same,"A10 radioligand binding, percentage inhibition",[2]; [125I]-Nociceptin,− (“−” indicates less than 50% inhibition at 10 μM)
same,"A3 radioligand binding, percentage inhibition",[3]; [125I]-NDP-αMSH,− (“−” indicates less than 50% inhibition at 10 μM)
same,"A2 radioligand binding, percentage inhibition",[4]; [3H]-Diprenorphine,− (“−” indicates less than 50% inhibition at 10 μM)
same,"A8 radioligand binding, percentage inhibition",[5]; [125I]-Substance P,+ (“+” indicates greater than 50% inhibition at 10 μM)
same,"A5 radioligand binding, percentage inhibition",[6]; [125I]-NDP-αMSH,+ (“+” indicates greater than 50% inhibition at 10 μM)
same,"A11 radioligand binding, percentage inhibition",[7]; [125I]-Urotensin II,− (“−” indicates less than 50% inhibition at 10 μM)
same,"A6 radioligand binding, percentage inhibition",[8],+ (“+” indicates greater than 50% inhibition at 10 μM)
same,"A7 radioligand binding, percentage inhibition",[9]; [3H]-Naloxone,− (“−” indicates less than 50% inhibition at 10 μM)
same,"A9 radioligand binding, percentage inhibition",[10]; [125I]-PYY,− (“−” indicates less than 50% inhibition at 10 μM)
same,"A4 radioligand binding, percentage inhibition",[11]; [125I]-NDP-αMSH,− (“−” indicates less than 50% inhibition at 10 μM)
COC[C@H]1OC(OCc2ccc(-c3ccccc3)cc2)[C@H](NC(=O)CCCN)[C@@H](OCc2cccc(O)c2)[C@@H]1O (stereo partly shown) [compound 131],"A1 radioligand binding, percentage inhibition",[1]; [3H]-Bremazocine,− (“−” indicates less than 50% inhibition at 10 μM)
same,"A10 radioligand binding, percentage inhibition",[2]; [125I]-Nociceptin,− (“−” indicates less than 50% inhibition at 10 μM)
same,"A3 radioligand binding, percentage inhibition",[3]; [125I]-NDP-αMSH,− (“−” indicates less than 50% inhibition at 10 μM)
same,"A2 radioligand binding, percentage inhibition",[4]; [3H]-Diprenorphine,− (“−” indicates less than 50% inhibition at 10 μM)
same,"A8 radioligand binding, percentage inhibition",[5]; [125I]-Substance P,− (“−” indicates less than 50% inhibition at 10 μM)
same,"A5 radioligand binding, percentage inhibition",[6]; [125I]-NDP-αMSH,− (“−” indicates less than 50% inhibition at 10 μM)
same,"A11 radioligand binding, percentage inhibition",[7]; [125I]-Urotensin II,− (“−” indicates less than 50% inhibition at 10 μM)
same,"A6 radioligand binding, percentage inhibition",[8],+ (“+” indicates greater than 50% inhibition at 10 μM)
same,"A9 radioligand binding, percentage inhibition",[10]; [125I]-PYY,− (“−” indicates less than 50% inhibition at 10 μM)
same,"A4 radioligand binding, percentage inhibition",[11]; [125I]-NDP-αMSH,− (“−” indicates less than 50% inhibition at 10 μM)

# — US20080009418A1, “Selective Inhibitors” (Alchemia LTD., priority 2004, published 2008)
